Here are results for two molecules from US7893252B2, “Selectively depolymerized galactomannan polysaccharide” (priority 2003, dated 2011).

In data set [1] the test system is human colon tumor COLO 205. Nature of the data set: Efficacy study in COLO 205 human colon tumor xenografts, q4d×3 (Example 3). Particulars: 5-FU 75 mg/kg/dose. On the procedure: The both studies were conducted as follows.
5-FU alone was administered i.v. on the same q4d×3 treatment schedule at doses of 75 mg/kg/dose (225 mg/m2/dose). 5-FU was formulated in saline fresh on each day of treatment at a concentration of 3.75 mg/mL, at pH 9.2. […] Both individual compounds and their mixture were administered according to exact body weight with injection volume being 0.2 mL/10 g body weight.
There were a total of four groups of 10 animals each, s.c.-implanted with COLO 205 human colon tumor xenografts.
(In general: In xenograft studies the graft and the host belong to different species.)

Data set [2] concerns COLO 205 human colon tumor xenografts. Nature of the data set: Efficacy and compatibility with leucovorin in COLO 205 human colon tumor xenografts, q4d×4 (Example 4). Particulars: GM 120 mg/kg/dose. The protocol:
The principal differences with the study described in Example 3 were that (a) the galactomannan was from another source, of a different size (molecular weight) and with a different Man/Gal ratio, (b) there were four consecutive injections, not three, (c) there were four doses of the galactomannan tested, not one, (d) 5-FU was administered (i.v.) in 48 mg/kg/dose, not 75 mg/kg/dose, as in the first study, and (e) galactomannan (i.v. injection) was compared with leucovorin (oral gavage, administered two hours after 5-FU) in terms of efficacy and toxicity. […] 5-FU alone was administered i.v. on the same q4d×4 treatment schedule at dosages of 48 mg/kg/dose. 5-FU was formulated in saline fresh on each day of treatment at a concentration of 4.8 mg/mL, at pH 9.2. […] Leucovorin powder (clinical formulation, Leucovorin calcium for injection) was reconstituted with water for injection to yield a concentration of 10 mg/mL. On each day of treatment the stock solution was diluted with water for injection to yield a concentration of 2.5 mg/mL.
Two more combination-treatment groups were also included in the study. One group of mice was treated with 5-FU (48 mg/kg/dose, i.v., q4d×4), followed by oral gavage (p.o.) with leucovorin, administered two hours after 5-FU at a dosage of 25 mg/kg/dose. Another two groups of mice were treated with 5-FU in a combination with the galactomannan (48 mg/kg/dose and 120 mg/kg/dose, respectively, i.v., q4d×4), followed by p.o. leucovorin treatment, administered at a dosage of 25 mg/kg/dose two hours after 5-FU plus the galactomannan.
There were a total of nine groups of 10 animals each, s.c.-implanted with COLO 205 human colon tumor xenografts.

In the next data set the test system is mice. Nature of the data set: Acute toxicology, single IV dose in mice. The class given is in vivo. Particulars: single IV dose 409 mg/kg (1227 mg/m2) 5-FU. The protocol:
Acute toxicology studies of the galactomannan of the present invention were performed in mice, rats and dogs and subchronic toxicology studies were performed in rats and dogs. The following is a summary of the findings of these studies: […]

Data set [3] relates to rats. Description: Acute toxicology, single IV dose in rats. The class given is in vivo. Particulars: 5-FU 140 mg/kg, galactomannan 72 mg/kg, combination 140/72 mg/kg, n=5/sex/group. On the procedure: (§1) Acute toxicology studies of the galactomannan of the present invention were performed in mice, rats and dogs and subchronic toxicology studies were performed in rats and dogs. The following is a summary of the findings of these studies:
In rats (n=5/sex/group), single IV doses of 140 mg/kg (840 mg/m2) 5-FU, 72 mg/kg (432 mg/m2) galactomannan or 140/72 mg/kg of the combination produced no deaths in any of the groups.
Toxic changes in body weight, feed consumption, and hematology were less severe in the rats injected with the combination, versus those injected with 5-FU alone.

A further data set has as its system dogs. Nature of the data set: Acute toxicology, single IV injection in dogs. The class given is in vivo. Particulars: 5-FU 28.5 mg/kg, galactomannan 15 mg/kg, combination 28.5/15 mg/kg. On the procedure:
as §1
The surviving dogs remained clinically normal and had no treatment-related changes in body weight, feed consumption, ECG tracings, clinical pathology or gross tissue changes during the 21-day study period.

Data set [4] relates to rats. Description: 28-day subchronic rat study (Example 7). The class given is in vivo. Particulars: 48 mg/kg 5-FU, daily IV for four consecutive days. The protocol: In the 28-day subchronic rat study performed with research grade unfiltered galactomannan, single daily IV doses of 10 mL/kg saline, 48 mg/kg (288 mg/m2) 5-FU, 48 mg/kg (288 mg/m2) galactomannan or 24/13 mg/kg (144/78 mg/m2), 36/19 mg/kg (216/114 mg/m2) or 48/25 mg/kg (288/150 mg/m2) of the 5-FU/galactomannan combination were given at a rate of 1 mL/min for four consecutive days. The four doses of 5-FU produced mortality (7/8 with 48 mg/kg 5-FU; 1/8, 2/8 and 7/8 with 24/13, 36/19 and 48/25 mg/kg 5-FU/galactomannan, respectively).
Lesions in unscheduled-death animals were primarily due to the expected action of 5-FU on the hematopoietic and lymphoid systems, with secondary bacterial invasion and disseminated hemorrhage due to effects on coagulation. At the study day 5 necropsy, lesions included pronounced hypocellularity of the bone marrow, lymphoid atrophy of the thymus and atrophy of villi in the various segments of the small intestine (all considered due to the expected action of 5-FU). With the exception of the mild granulomatous foci in the lungs, treatment-related histopathological lesions were resolved in animals sacrificed at study day 29 (only one female survived in Group 2 and Group 6).

The subject of another data set is beagle dogs. Description: 28-day canine study (Example 9). Particulars: 6 mg/kg (120 mg/m2) 5-FU, daily IV for four consecutive days. The class given is in vivo. On the procedure: In a 28-day canine study, single daily IV doses of saline, 6 mg/kg (120 mg/m2) 5-FU and ([…] (240 mg/m2) galactomannan or 4/2 mg/kg (80/40 mg/m2), 6/3.2 mg/kg (120/64 mg/m2) or 6/6 mg/kg (120/120 mg/m2) 5-FU/galactomannan were injected for four consecutive days to six groups of beagle dogs Mortality occurred in 13 of 48 dogs (five moribund sacrifices and eight found dead) between Study Days 2 and 5 (4/4 males on 5-FU; 3/4 males in the 4/2 mg/kg 5-FU/galactomannan group; 2/4 males and 1/4 females in the 6/3.2 and 6/6 mg/kg 5-FU/galactomannan groups, respectively).
Adverse effects in 5-FU groups included ataxia, prostration, vocalization, convulsions, tremors, hypersensitivity to touch, aggressive behavior (resulting in only three doses being given to the 6/3.2 5-FU/galactomanna group), emesis, salivation, soft stools and decreased red cell parameters and platelet counts. […] At the day 5 necropsy, treatment-related histological changes were largely limited to the 5-FU females. At day 29 necropsy, there were no remarkable changes in the survivors.

Data set [5] deals with advanced colorectal cancer. Particulars: cited from earlier work.
Where [6] appears, read: q4d×4, 5-FU 48 mg/kg/dose i.v., leucovorin oral 25 mg/kg/dose.

Turning to `O=c1[nH]cc(F)c(=O)[nH]1` [5-FU, 5-fluorouracil, reference compound], in data set [1] (i.v. q4d×3, GM 120 mg/kg/dose), the mean survival time is reported as 23.7 days, the “median to quadrupling of tumor volume” value is 23.7 days, the “median tumor volume after 56 days of the study” value was 2254 mm3 and the “tumor regression after 56 days of the study” value is reported as “no tumor regression”. In data set [1] (i.v. q4d×3, GM 120 mg/kg/dose, 10 mice per group, within two weeks), the treatment-related deaths result is “three of ten”. Further, the “time required to quadruple tumor weight” value in data set [1] (intravenous, galactomannan 120 mg/kg/day (360 mg/m2)) came out at 23.5 days. In addition, in data set [2] (i.v. q4d×4, 5-FU 48 mg/kg/dose), the “median to quadrupling of tumor volume” value amounted to 8.7 days and the “median tumor volume after 13 days” value came out at 800 mm3. Besides, in data set [2] (setting [6]), the “median days to quadrupling of tumor weight” value was found to be 8.7 days; the “tumor weight at Day 13 from treatment initiation, mean” value is 734 mg; the “tumor weight at Day 13 from treatment initiation, median” value was found to be 800 mg. In the data set with mice, the death is given as 3/5 and the time of death lay in the range of 13 to 16 days. For the same molecule, the deaths result in the data set with rats [3] is reported as “no deaths”. Further, the death in the data set with dogs is 2/2. The mortality in the data set with rats [4] is 7/8. Besides, the “mortality between Study Days 2 and 5” value with beagle dogs was 4/4. In addition, the “patients with hand-foot syndrome” value in data set [5] (continuous infusion regimens) is reported as “approximately 20%”.

Turning to `O=C1[O][Pt]2([NH][C@@H]3CCCC[C@H]3[NH]2)[O]C1=O` [Oxaliplatin], the “single agent response rate” value in data set [5] (previously treated colorectal cancer patients) is listed as 10%.
